Experimental data taken from patent publication US20170152226A1, “FUNCTIONALISED AND SUBSTITUTED INDOLES AS ANTI-CANCER AGENTS” (Novogen Ltd., priority 2014, published 2017).

Legend:
A375 tumours = assay: Human melanoma (A375) xenograft model; type: in vivo; conditions: 60 mg/kg intravenously twice a week
Method: FIG. 5: Compound 3507/30% w/v Dexolve-7 was administered IV 2×/week at 60 mg/kg for 14 days in a flank xenograft model of melanoma (A375). Tumour volume was measured every 2-3 days. ** p<0.01.
The in vivo efficacy of 3507 was also evaluated in a human melanoma (A375) xenograft model. A375 tumours were established in female Foxn-1 nu/nu athymic mice by injecting approximately five million cells subcutaneously in the right flank region of the animal. When the tumours reached 130-150 mm^3 the animals were randomized into four groups, (n=8 or 12 animals/group) so that the average tumour volume of all the groups was same. Group 1 received vehicle (30% w/v Dexolve-7 in sterile water) twice a week intravenously, and Group 2 was dosed with 3507/Dexolve-7 at 60 mg/kg, twice a week intravenously. Tumours and body weight was measured two to three times in a week. In addition, throughout the study period mice were monitored daily for clinical condition.

CaCo2 = assay: Anti-proliferative activity, cell-titre luminescent viability assay; type: cell-based; conditions: Homo sapiens, Caco-2, 72 h, 0.03, 0.3, 3 and 30 μM, linear regression of semi-log plots, read-out: IC50 Colorectal CaCo2
Method in brief: (§1)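 Cells were seeded at pre-determined densities, cultured 24 hours at 37° C/5% CO2, then exposed 72 hours to compound at 0.03, 0.3, 3 and 30 μM or at 0.1, 0.3, 1, 3, 10 and 30 μM. Viability was read by cell-titre luminescence after 30 min, normalized to untreated control, and IC50 or EC50 derived.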

DU145 = assay: as above; type: cell-based; conditions: Homo sapiens, DU-145, 72 h, 0.03, 0.3, 3 and 30 μM, linear regression of semi-log plots, read-out: IC50 Prostate DU145
Method in brief: as §1

SK-Mel-28 = assay: as above; type: cell-based; conditions: Homo sapiens, SK-MEL-28; 72 hours; 0.03, 0.3, 3 and 30 μM; linear regression of semi-log plots; read-out: IC50 Melanoma SK-Mel-28
Method in brief: as §1

PC3 = assay: as above; type: cell-based; conditions: Homo sapiens, PC-3, 72 h, 0.03, 0.3, 3 and 30 μM, linear regression of semi-log plots, read-out: IC50 Prostate PC3
Method in brief: as §1

SK-N-SH = assay: as above; type: cell-based; conditions: Homo sapiens, SK-N-SH, 72 h, 0.03, 0.3, 3 and 30 μM, linear regression of semi-log plots, read-out: IC50 Neuroblastoma SK-N-SH
Method in brief: as §1

MDA-MB-231 = assay: as above; type: cell-based; conditions: Homo sapiens, MDA-MB-231, 72 h, 0.03, 0.3, 3 and 30 μM, linear regression of semi-log plots, read-out: IC50 Breast MDA-MB-231
Method in brief: as §1

A549 = assay: as above; type: cell-based; conditions: Homo sapiens, A549, 72 h, 0.03, 0.3, 3 and 30 μM, linear regression of semi-log plots, read-out: IC50 Lung (NSLC) A549
Method in brief: as §1

Cc1c(C)n(CCCN2CCN(C)CC2)c2ccc(Oc3cccc(C(=O)N4CCN(CCc5ccc(F)cc5)CC4)c3)cc12 [Compound 3507, (3-((2,3-dimethyl-1-(3-(4-methylpiperazin-1-yl)propyl)-1H-indol-5-yl)oxy)phenyl)(4-(4-fluorophenethyl)piperazin-1-yl)methanone]
tolerability (A375 tumours): well tolerated
reduction of melanoma tumour growth compared to vehicle control (A375 tumours; after 14 days treatment): ~60%
body weights (A375 tumours; throughout the study period): comparable to the control group
IC50 (CaCo2): 2.5 µM
IC50 (DU145): 1.3 µM
IC50 (SK-Mel-28): 1 µM
IC50 (PC3): 1.2 µM
IC50 (SK-N-SH): 1.4 µM
IC50 (MDA-MB-231): 1.4 µM
IC50 (A549): 1.2 µM
